Measurements as given in patent EP0326134A1, “4-Amino-2,3-disubstituted-6,7-dihydro-5H-1-pyridine derivatives, process for their preparation and medicaments containing them” (NAUCHNO-ISSLEDOVATELSKY INSTITUT TEKHNOLOGII I BEZOPASNOSTI …, priority 1988, dated 1989).
Where a name gives a salt, the structure may show the parent alone. Read-outs that look alike come from different tables or passages of the source.

Columns and labels:
[1] = Acute toxicity, single intraperitoneal injection, probit analysis (LD50); assay type: in vivo, Mäusen; conditions: mice, i.p.
From the text: Ihre akute Toxizität wurde an Mäusen (einmalige intraperitoneale Injektion) nach der Methode der Probit-Analyse nach Zichtfield, Wilcoxon, t949 untersucht. In Tabelle 2 sind die Parameter der akuten Toxizität (LDso) angegeben, die eine mäßige Toxizität der erfindungsgemäßen Verbindungen belegen.

[2] = Side effects and CNS/behaviour: tremor (TD50), sedative and m-cholinomimetic effects; assay type: in vivo; conditions: for selectivity ratio / TD50: in vivo; for selectivity ratio / Verhältnis TD50 zu ED50: ED50 = dose blocking the effect of Skopolamin in 50 % of the animals (passive avoidance, mice); for selectivity ratio: read-out: Verhältnis TD50 zu ED50; for TD50 / TD50 (Tremor): toxic dose causing tremor in 50 % of the animals
From the text: Von Interesse ist der Einfluß der erfindungsgemäßen Verbindungen auf das ZNS und das Verhalten der Tiere.

[3] = system: durch Skopolamin hervorgerufene Amnesie; assay: Dark avoidance assay (passive avoidance), scopolamine-induced amnesia; assay type: in vivo, Mäusen; conditions: for antiamnestische Wirkung: in words, compared with Amyridin; for Einfluß auf das Gedächtnis: Zahl der Tiere in %, bei denen die Skopolaminwirkung aufgehoben wurde: mice, compound s.c. 5 min before learning, Skopolamin i.p. 30 min before
Protocol: Die Mäuse wurden dabei in den hellen Abschnitt der Kammer gegeben, wonach die Latenzzeit für den Übertritt in die dunkle Kammer, in der die Tiere einem Stromschlag von 0,5 mA ausgesetzt waren, registriert wurde. Danach erhöhte sich die Latenzzeit für den Übertritt in den dunklen Abschnitt und verringerte sich die Aufenthaltsdauer. 30 Minuten vor dem Versuch wurden den Mäusen i.p. […] Gedächtnisstörungen hervorrufendes Skopolamin als Cholinblocker injiziert. Die erfindungsgemäßen Verbindungen wurden s.c. 5 Minuten vor dem Lernvorgang injiziert. Das Skopolamin verkürzt die Latenzzeit für den Übertritt in die dunkle Kammer, die erfindungsgemäßen Verbindungen stellen jedoch die Latenzzeitwerte wie bei der Kontrollgruppe wieder her oder bedingen ein geringfügiges Überschreiten dieser Werte (siehe Tabelle 2). Gleichzeitig wird die Aufenthaltsdauer der Tiere im dunklen Abschnitt der Kammer auf 36 bis 45 Hundertstel des Ausgangswerts verringert.

[4] = system: Nerven-Muskel-Präparat von Mäusen (n.peroneus-m.extensor digitorum longus); assay: Neuromuscular transmission in isolated nerve-muscle preparation (EPP, minEPP); conditions: for Stimulierung der Nerven-Muskelübertragung, in % der Amplitude: EPP: EPP = Endplattenpotential
From the text: Der Einfluß der Stoffe auf die Nerven-Muskei-Übertragung wurde am isolierten Nerven-Muskel-Präparat von Mäusen (n.peroneus-m.extensor digitorum longus) (s. Bhattacharyya B. et al. "Neuromuscular blocking action of two hemicholinium-3 analogs" Europ. J. Pharmac. 146, 155-165 /1988/) untersucht, das von Lilly-Lösung perfundiert wurde, durch die man ein Gemisch von 02 und C02 leitete. […] Das Endplattenpotential (EPP) und das Endplattenminiaturpotential (minEPP) wurden mit Hilfe eines Magnetografen aufgezeichnet und danach mit dem Computer ausgewertet. Ermittelt wurden die Frequenz (f), die Amplitude (A) und die Dauer (t) der minEPP und der EPP (s. Tabelle 2).

Uterus der Ratte = assay: Contractile activity of smooth muscle: rat uterus; conditions: n = 9; for activity at 100 µM: Konzentration 1.10^-4 Mol, read-out: Serotonin 1.10^-6 (Mol): Amplitude, % bezogen auf die Kontrolle
From the text: (§1) In Versuchen an glattmpskulären Organen (Uterus, Samenleiter der Ratte und Krummdarm des Meerschweinchens) wurden die Wirkung der erfindungsgemäßen Verbindungen auf die kontraktile Aktivität der glatten Muskeln und ihre Reaktionen auf den Einfluß von Acetylcholin, Serotonin, Adrenalin und KCI als Agonisten untersucht. Mit Hilfe eines Schreibers wurden die Amplitude und die Dauer der Kontraktion der glatten Muskeln unter Verwendung eines Geräts vom Typ Mechanstron-untersucht.

Samenleiter der Ratte = assay: Contractile activity of smooth muscle: rat vas deferens; conditions: Rattus norvegicus, Samenleiter der Ratte, n = 9, read-out: Adrenalin 1.10^-6: Amplitude, % bezogen auf d.Kontrolle; for activity at 100 µM: Konzentration 1.10^-4 Mol
From the text: as §1

[5] = biological target: T1, Acetylcholinesterase menschlicher Erythrozyten (Homo sapiens, UniProt P22303); assay: Acetylcholinesterase inhibition, spectrophotometric; assay type: biochemical; conditions: Acetylcholinesteraseinhibierung bei menschlichen Erythrozyten IK, (Mol), human erythrocyte enzyme
T1 construct: Acetylcholin-esteraseinhi-bierung bei menschlichen Erythrozyten; from tissue; host or cells: human erythrocytes
T1 sequence (P22303 other isoform, or with tags, fused parts or gaps): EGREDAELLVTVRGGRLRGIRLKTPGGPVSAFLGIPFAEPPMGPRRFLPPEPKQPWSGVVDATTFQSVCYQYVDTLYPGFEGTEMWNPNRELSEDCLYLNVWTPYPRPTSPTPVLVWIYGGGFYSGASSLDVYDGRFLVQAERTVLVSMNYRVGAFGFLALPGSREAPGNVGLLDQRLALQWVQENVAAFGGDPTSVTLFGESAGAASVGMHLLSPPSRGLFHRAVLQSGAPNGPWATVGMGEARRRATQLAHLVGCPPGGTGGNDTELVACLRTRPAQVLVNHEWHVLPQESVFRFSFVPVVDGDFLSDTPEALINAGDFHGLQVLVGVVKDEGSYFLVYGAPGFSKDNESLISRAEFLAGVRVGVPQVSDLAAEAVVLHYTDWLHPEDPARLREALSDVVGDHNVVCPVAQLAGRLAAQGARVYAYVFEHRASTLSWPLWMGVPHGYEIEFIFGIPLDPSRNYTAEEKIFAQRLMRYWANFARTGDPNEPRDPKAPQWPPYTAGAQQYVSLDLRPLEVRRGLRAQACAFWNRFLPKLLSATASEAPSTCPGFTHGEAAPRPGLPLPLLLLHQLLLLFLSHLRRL
From the text: Untersucht wurden die Wirkmechanismen der erfindungsgemäßen Verbindungen: • 1. Die Wirkung auf Acetylcholinesterase menschlicher Erythrozyten auf spektrofotometrischem Wege. • 2.

[6] = system: K -Durchlässigkeit der Membrane des Ranvier-Schnürringes; assay: K+ permeability of the node of Ranvier membrane, voltage clamp; set-up: species or system Frosches; conditions: node of Ranvier, frog sciatic nerve fibres, voltage clamp; concentration giving 50 % block of ion permeability; read-out: Blockierung der K^+-Durchlässigkeit der Membrane Ic50 (Mol)
From the text: (§2) Untersucht wurden die Wirkmechanismen der erfindungsgemäßen Verbindungen: • 1. Die Wirkung auf Acetylcholinesterase menschlicher Erythrozyten auf spektrofotometrischem Wege. • 2. Die Wirkung auf die K - und Na -Durchlässigkeit der Membrane des Ranvier-Schnürringes (s. Fox T.M. et al. "Modification of ionic membrane currrents of Ranvier nodes by UV-radiation under voltage clamp conditions", Experientia, 27, 1289-1290 /1971/ und Arhom P. et al. "Local anesthetics: effects on permeability properties of nodal membrane in myelynated nerve fibres from xenopus". Acta physiol. Scand. 91, 11-21 /1974/) der Nervenfasern des Hüftnervs des Frosches unter Anwendung der Methode der Messung der Membranspannung (Voltage-clampmethode) (s. Derksen H.E. "Axon membrane voltage fluctuations", Acta Physiol., Pharmacol Neer, 13, 373-466 /1965/).
(§3) Alle erfindungsgemäßen Verbindungen sind Blocker für die K^+-Durchlässigkeit der Membrane analog dem Amyridin. Die Salze der bicyclischen Basen blockieren jedoch stärker die Na -Durchlässigkeit der Membrane, was sich mit ihren sedativen und analgetischen Eigenschaften in Verbindung bringen läßt.

[7] = system: Na -Durchlässigkeit der Membrane des Ranvier-Schnürringes; assay: Na+ permeability of the node of Ranvier membrane, voltage clamp; set-up: species or system Frosches; conditions: node of Ranvier, frog sciatic nerve fibres, voltage clamp; concentration giving 50 % block of ion permeability; read-out: Blockierung der Na^+-Durchlässigkeit der Membrane Ic50 (Mol)
From the text: as §2, §3

[8] = mouse, in vivo, ip, read-out: LD50
[9] = Rattus norvegicus, Uterus der Ratte

SMILES: CNc1c(C)c(C)nc2c1CCC2 [Verbindung 19, 2,3-Dimethy)-4-methy)amino-6,7-dihydro-5H-1-pyrindinhydrat]
- LD50 [1, 8]: 16 mg/kg
- selectivity ratio [2]: 4
- TD50 [2]: 12 mg/kg
- antiamnestische Wirkung [3]: antiamnestische Wirkung, welche die von Amyridin etwas übertraf
- Einfluß auf das Gedächtnis: Zahl der Tiere in %, bei denen die Skopolaminwirkung aufgehoben wurde [3]: 70%
- Stimulierung der Nerven-Muskelübertragung, in % der Amplitude: EPP [4]: 28%
- Stimulierung der Nerven-Muskelübertragung, in % der Amplitude: minEPP [4]: 56%
- activity at 100 µM (Uterus der Ratte; [9]): 120%
- activity at 100 µM (Samenleiter der Ratte): 115%
- Ki [5]: 6.7 µM
- IC50 [6]: 1800 µM
- IC50 [7]: 2500 µM

SMILES: CCNc1c(C)c(C)nc2c1CCC2 [Verbindung 20, 2,3-Dimethyl-4-ethylamino-6,7-dihydro-5H-1-pyrindin]
- LD50 [1, 8]: 18 mg/kg
- selectivity ratio [2]: 3.8
- TD50 [2]: 10 mg/kg
- antiamnestische Wirkung [3]: antiamnestische Wirkung, welche die von Amyridin etwas übertraf
- Einfluß auf das Gedächtnis: Zahl der Tiere in %, bei denen die Skopolaminwirkung aufgehoben wurde [3]: 65%
- Stimulierung der Nerven-Muskelübertragung, in % der Amplitude: EPP [4]: 30%
- Stimulierung der Nerven-Muskelübertragung, in % der Amplitude: minEPP [4]: 58%
- activity at 100 µM (Uterus der Ratte; [9]): 125%
- activity at 100 µM (Samenleiter der Ratte): 120%
- Ki [5]: 7 µM
- IC50 [6]: 2200 µM
- IC50 [7]: 2800 µM

SMILES: CCc1c(C)nc2c(c1N)CCC2 [Verbindung 21, 2-Methyl-3-ethyl-4-amino-6,7-dihydro-5H-1-pyrindinhydrat]
- LD50 [1, 8]: 30 mg/kg
- selectivity ratio [2]: 3.8
- TD50 [2]: 10 mg/kg
- antiamnestische Wirkung [3]: antiamnestische Wirkung, welche die von Amyridin etwas übertraf
- Einfluß auf das Gedächtnis: Zahl der Tiere in %, bei denen die Skopolaminwirkung aufgehoben wurde [3]: 68%
- Stimulierung der Nerven-Muskelübertragung, in % der Amplitude: EPP [4]: 25%
- Stimulierung der Nerven-Muskelübertragung, in % der Amplitude: minEPP [4]: 58%
- activity at 100 µM (Uterus der Ratte; [9]): 118%
- activity at 100 µM (Samenleiter der Ratte): 115%
- Ki [5]: 7 µM
- IC50 [6]: 3500 µM
- IC50 [7]: 3200 µM

SMILES: CCCc1c(C)nc2c(c1N)CCC2 [Verbindung 24]
- LD50 [1, 8]: 30 mg/kg
- selectivity ratio [2]: 3
- TD50 [2]: 10 mg/kg
- Einfluß auf das Gedächtnis: Zahl der Tiere in %, bei denen die Skopolaminwirkung aufgehoben wurde [3]: 68%
- Stimulierung der Nerven-Muskelübertragung, in % der Amplitude: EPP [4]: 25%
- Stimulierung der Nerven-Muskelübertragung, in % der Amplitude: minEPP [4]: 54%
- activity at 100 µM (Uterus der Ratte; [9]): 119%
- activity at 100 µM (Samenleiter der Ratte): 120%
- Ki [5]: 7.5 µM
- IC50 [6]: 4000 µM
- IC50 [7]: 4200 µM

SMILES: CCc1nc2c(c(N)c1C)CCC2 [Verbindung 27, 2-Ethyl-3-methyl-4-amino-6,7-dihydro-5H-1-pyrindinhydrat]
- LD50 [1, 8]: 30 mg/kg
- selectivity ratio [2]: 10
- TD50 [2]: 19 mg/kg
- antiamnestische Wirkung [3]: antiamnestische Wirkung, welche die von Amyridin etwas übertraf
- Einfluß auf das Gedächtnis: Zahl der Tiere in %, bei denen die Skopolaminwirkung aufgehoben wurde [3]: 60%
- Stimulierung der Nerven-Muskelübertragung, in % der Amplitude: EPP [4]: 23%
- Stimulierung der Nerven-Muskelübertragung, in % der Amplitude: minEPP [4]: 45%
- activity at 100 µM (Uterus der Ratte; [9]): 125%
- activity at 100 µM (Samenleiter der Ratte): 126%
- Ki [5]: 3.8 µM
- IC50 [6]: 150 µM
- IC50 [7]: 380 µM

SMILES: CCc1nc2c(c(N)c1C)CCC2 [Verbindung 29]
- LD50 [1]: 35 mg/kg
- Verhältnis TD50 zu ED50 [2]: 12
- TD50 (Tremor) [2]: 22 mg/kg
- Einfluß auf das Gedächtnis: Zahl der Tiere in %, bei denen die Skopolaminwirkung aufgehoben wurde [3]: 70%
- Stimulierung der Nerven-Muskelübertragung, in % der Amplitude: EPP [4]: 18%
- Stimulierung der Nerven-Muskelübertragung, in % der Amplitude: minEPP [4]: 40%
- Ki [5]: 6 µM
- IC50 [6]: 200 µM
- IC50 [7]: 300 µM

SMILES: CCc1nc2c(c(N)c1C)CCC2 [Verbindung 30]
- LD50 [1]: 40 mg/kg
- Verhältnis TD50 zu ED50 [2]: 11
- TD50 (Tremor) [2]: 22 mg/kg
- Einfluß auf das Gedächtnis: Zahl der Tiere in %, bei denen die Skopolaminwirkung aufgehoben wurde [3]: 75%
- Stimulierung der Nerven-Muskelübertragung, in % der Amplitude: EPP [4]: 24%
- Stimulierung der Nerven-Muskelübertragung, in % der Amplitude: minEPP [4]: 45%
- Ki [5]: 5.1 µM
- IC50 [6]: 280 µM
- IC50 [7]: 350 µM

SMILES: Cc1nc2c(c(N)c1-c1ccccc1)CCC2 [Verbindung 33]
- LD50 [1]: 25 mg/kg
- Verhältnis TD50 zu ED50 [2]: 2,4
- TD50 (Tremor) [2]: 15 mg/kg
- Einfluß auf das Gedächtnis: Zahl der Tiere in %, bei denen die Skopolaminwirkung aufgehoben wurde [3]: 55%
- Stimulierung der Nerven-Muskelübertragung, in % der Amplitude: EPP [4]: 20%
- Stimulierung der Nerven-Muskelübertragung, in % der Amplitude: minEPP [4]: 42%
- activity at 100 µM (Uterus der Ratte; [9]): 140%
- activity at 100 µM (Samenleiter der Ratte): 128%
- Ki [5]: 48 µM
- IC50 [6]: 6500 µM
- IC50 [7]: 5500 µM

SMILES: Nc1c2c(nc3c1CCC3)CCC2 [Verbindung 36, 8-Amino-1,2,3,5,6,7-hexahydro-1-cyclopenta[b]pyrindin-hydrochlorid]
- LD50 [1, 8]: 36 mg/kg
- selectivity ratio [2]: 7.5
- TD50 [2]: 15 mg/kg
- Einfluß auf das Gedächtnis: Zahl der Tiere in %, bei denen die Skopolaminwirkung aufgehoben wurde [3]: 65%
- Stimulierung der Nerven-Muskelübertragung, in % der Amplitude: EPP [4]: 20%
- Stimulierung der Nerven-Muskelübertragung, in % der Amplitude: minEPP [4]: 60%
- activity at 10 µM (Uterus der Ratte; Rattus norvegicus, Uterus der Ratte (as head prints), Konzentration 1.10^-5 Mol, ditto mark -"- repeats unverändert, read-out: Acetylcholin 1.10^-6 (Mol): Amplidude, % bezogen auf d. Kontrolle): 140%
- activity at 10 µM (Samenleiter der Ratte; Konzentration 1.10^-5 Mol): 160%
- Ki [5]: 0.11 µM
- IC50 [6]: 420 µM
- IC50 [7]: 5200 µM

SMILES: Nc1c2c(nc3c1CCC3)CCC2 [Verbindung 37, 8-Amino-1,2,3,5,6,7-hexahydro-1-cyclopenta[b]pyrindinperchlorat]
- LD50 [1]: 38 mg/kg
- Verhältnis TD50 zu ED50 [2]: 8,2
- TD50 (Tremor) [2]: 18 mg/kg
- Einfluß auf das Gedächtnis: Zahl der Tiere in %, bei denen die Skopolaminwirkung aufgehoben wurde [3]: 68%
- Stimulierung der Nerven-Muskelübertragung, in % der Amplitude: EPP [4]: 30%
- Stimulierung der Nerven-Muskelübertragung, in % der Amplitude: minEPP [4]: 66%
- Ki [5]: 0.15 µM
- IC50 [6]: 450 µM
- IC50 [7]: 4200 µM

SMILES: Nc1c2c(nc3c1CCC3)CCCCC2 [Verbindung 39]
- LD50 [1]: 50 mg/kg
- Verhältnis TD50 zu ED50 [2]: 7,2
- TD50 (Tremor) [2]: 18 mg/kg
- Einfluß auf das Gedächtnis: Zahl der Tiere in %, bei denen die Skopolaminwirkung aufgehoben wurde [3]: 72%
- Stimulierung der Nerven-Muskelübertragung, in % der Amplitude: EPP [4]: 25%
- Stimulierung der Nerven-Muskelübertragung, in % der Amplitude: minEPP [4]: 60%
- Acetylcholin 1.10^-6 (Mol): Dauer, Min. (Uterus der Ratte; Uterus der Ratte (as head prints), Konzentration 1.10^-5 Mol): 22±0.6 Min.
- Serotonin 1.10^-6 (Mol): Dauer, Min. (Uterus der Ratte; Uterus der Ratte, Konzentration 1.10^-5 Mol): 28±0.5 Min.
- Ki [5]: 0.56 µM
- IC50 [6]: 480 µM
- IC50 [7]: 5000 µM
